In US11560370B1, “5-membered heteroaryl carboxamide compounds for treatment of HBV” (Assembly Biosciences, Inc., priority 2018, dated 2023):
Several values for one entry are separate records, joined by “and”; a condition that tells them apart may be missing. Equal values may be shown once.

The molecules below were run on HBV (assay: Viral production from HepAD38 cells, viral load by qPCR of HBV core sequence). Conditions: 5 days, supernatant HBV DNA by qPCR, read-out: Viral Load EC50 Activity range.
Assay type: cell-based
Protocol: Assay Measuring Activity of Test Compounds on Viral Production from HepAD38 Cells
HepAD38 cells grown in a T-150 flask (Corning, cat #: 430825) with Growth Medium (DMEM/F12 (1:1) (Hyclone, cat #: SH30023.02), 1× Pen/Strep (Invitrogen, cat #: 15140-122), 10% FBS (Tissue Culture Biologics, cat #: 101), 250 μg/mL G418 (Alfa Aesar, cat #: J62671), 1 μg/mL Tetracycline (Teknova, cat #: T3320)) were detached with 0.25% trypsin-EDTA to (Invitrogen, cat #: 25200-056). Tetracycline-free treatment medium (15 mL DMEM/F12 (1:1) 1× Pen/step, with 2% FBS, Tet-system approved (Clontech, cat #: 631106) were then added to mix, transferred into a 50 ml conical tube (Falcon, cat #: 21008-918,) and spun at 1300 rpm for 5 min. Pelleted cells were then re-suspended/washed with 50 mL of 1×DPBS (Invitrogen, cat #: 14190-136) 2 times and 50 mL treatment medium twice. HepAD38 cells were then re-suspended with 10 mL of treatment medium, syringed and counted. Wells of 96-well clear bottom TC plate (Corning, cat #: 3904,) were seeded at 50,000 cells/well in 180 μL of treatment medium, and 20 μL of either 10% DMSO (Sigma, cat #: D4540) as controls or a 10× solution of test compounds in 10% DMSO in treatment media was added for a final compound concentration starting at 10 μM, and plates were incubated in 5% CO2 incubator at 37° C. for 5 days.
Subsequently viral load production was assayed by quantitative PCR (qPCR) of the HBV core sequence. PCR reaction mixture containing forward primers HBV-f 5′-CTGTGCCTTGGGTGGCTTT-3′ (IDT DNA), Reverse primers HBV-r 5′-[…]-3′ (IDT DNA), Fluorescent TaqMan™ Probes HBV-probe 5′-FAM/AGCTCCAAA/ZEN/[…]/3IABkFQ-3′ (IDT DNA), 10 μL/well of PerfeCTa® qPCR ToughMix® (Quanta Biosciences, Cat #: 95114-05K), and 6 μL/well of DEPC water (Alfa Aesar, cat #: J62087) was prepared. […] of supernatant was added to 16 μL of the reaction mixture in a qPCR plate (Applied Biosytems, Cat #: 4309849), sealed with a film (Applied Biosystems, Cat #: 4311971), centrifuged for a few seconds, and subsequently run on an Applied Biosystems VIIA7. The PCR mixture was incubated at 45° C. for 5 min, then 95° C. for 10 min, followed by 40 cycles of 10 seconds at 95° C. and 20 seconds at 60° C. Viral load was quantified against known HBV DNA standards by using ViiA™ 7 Software. Viral load in the supernatant from wells with treated cells were compared against viral load in supernatant from DMSO control wells (>3 per plate). Cell viability assay was performed with CellTiter-Glo Luminescent Cell Viability Assay (Promega, cat #: G7573) with modification. Mixed appropriate amount of CellTiter-Glo (CTG) 1×DPBS in a 1:1 ratio, added 100 uL of the mixture to each well followed completely removal of all supernatant in each well without touching cell surface. Incubated the plate at room temperature for 10 min on an orbital shaker, and then read the plate with a plate reader (TECAN M1000 or Envision). EC50 or CC50 values were calculated through curve-fitting of the four-parameter nonlinear-logistic-regression model (GraphPad Prism or Dotmatics). CC50 values were all >10 μM.

Molecule	EC50
5-Amino-N-(3-chloro-4-fluorophenyl)-1-methyl-3-(3-(pyridin-4-yl)cyclopentyl)-1H-pyrazole-4-carboxamide [AIA-271]	< 100 nM
5-Amino-N-(3-chloro-4-fluorophenyl)-3-(3-(3-chlorophenyl)cyclopentyl)-1-methyl-1H-pyrazole-4-carboxamide [AIA-273]	< 100 nM and 100 to 500 nM
Cn1cc(C2CCC(c3nn(C)c(N)c3C(=O)Nc3ccc(F)c(Cl)c3)C2)cn1 (single isomer, unassigned) [AIA-004-A, 5-Amino-N-(3-chloro-4-fluorophenyl)-1-methyl-3-(3-(1-methyl-1H-pyrazol-4-yl)cyclopentyl)-1H-pyrazole-4-carboxamide]	< 100 nM
Cn1cc(C2CCC(c3nn(C)c(N)c3C(=O)Nc3ccc(F)c(Cl)c3)C2)cn1 (single isomer, unassigned) [AIA-004-C, 5-Amino-N-(3-chloro-4-fluorophenyl)-1-methyl-3-(3-(1-methyl-1H-pyrazol-4-yl)cyclopentyl)-1H-pyrazole-4-carboxamide]	100 to 500 nM
Cn1cc(C2CCC(c3nn(C)c(N)c3C(=O)Nc3ccc(F)c(Cl)c3)C2)cn1 (single isomer, unassigned) [AIA-004-D, 5-Amino-N-(3-chloro-4-fluorophenyl)-1-methyl-3-(3-(1-methyl-1H-pyrazol-4-yl)cyclopentyl)-1H-pyrazole-4-carboxamide]	< 100 nM
Cn1nc(C2CC3CNC(=O)CC3C2)c(C(=O)Nc2ccc(F)c(Cl)c2)c1N (single isomer, unassigned) [AIA-033-B, 5-Amino-N-(3-chloro-4-fluorophenyl)-1-methyl-3-(3-oxooctahydro-1H-cyclopenta[c]pyridin-6-yl)-1H-pyrazole-4-carboxamide]	< 100 nM
Cn1nc(C2CC3C[S+]([O-])CC3C2)c(C(=O)Nc2ccc(F)c(Cl)c2)c1N (single isomer, unassigned) [AIA-056-B, 5-Amino-N-(3-chloro-4-fluorophenyl)-1-methyl-3-(2-oxidohexahydro-1H-cyclopenta[c]thiophen-5-yl)-1H-pyrazole-4-carboxamide]	500 to 10000 nM
Cn1nc(C2CCC(c3ccccc3)C2)c(C(=O)Nc2ccc(F)c(Cl)c2)c1N (single isomer, unassigned) [AIA-202A, 5-Amino-N-(3-chloro-4-fluorophenyl)-1-methyl-3-(3-phenylcyclopentyl)-1H-pyrazole-4-carboxamide]	< 100 nM
Cn1nc(C2CCC(c3ccccc3)C2)c(C(=O)Nc2ccc(F)c(Cl)c2)c1N (single isomer, unassigned) [AIA-202B, 5-Amino-N-(3-chloro-4-fluorophenyl)-1-methyl-3-(3-phenylcyclopentyl)-1H-pyrazole-4-carboxamide]	< 100 nM
Cn1nc(C2CCC(c3ccccc3)C2)c(C(=O)Nc2ccc(F)c(Cl)c2)c1N (single isomer, unassigned) [AIA-202C, 5-Amino-N-(3-chloro-4-fluorophenyl)-1-methyl-3-(3-phenylcyclopentyl)-1H-pyrazole-4-carboxamide]	500 to 10000 nM
Cn1nc(C2CCC(c3ccccc3)C2)c(C(=O)Nc2ccc(F)c(Cl)c2)c1N (single isomer, unassigned) [AIA-202D, 5-Amino-N-(3-chloro-4-fluorophenyl)-1-methyl-3-(3-phenylcyclopentyl)-1H-pyrazole-4-carboxamide]	< 100 nM
Cn1nc(C2CC(c3ccccc3)C2)c(C(=O)Nc2ccc(F)c(Cl)c2)c1N (single isomer, unassigned) [AIA-224A, 5-Amino-N-(3-chloro-4-fluorophenyl)-1-methyl-3-(3-phenylcyclobutyl)-1H-pyrazole-4-carboxamide]	< 100 nM

Same assay, conditions: Hepatitis B virus, HePAD38, 120 h, 5 days, supernatant HBV DNA by qPCR, read-out: Viral Load EC50 Activity range

Molecule	EC50
Cn1cc(C2CCC(c3nn(C)c(N)c3C(=O)Nc3ccc(F)c(Cl)c3)C2)cn1 (single isomer, unassigned) [AIA-004-B, 5-Amino-N-(3-chloro-4-fluorophenyl)-1-methyl-3-(3-(1-methyl-1H-pyrazol-4-yl)cyclopentyl)-1H-pyrazole-4-carboxamide]	100 to 500 nM
Cn1nc(C2CC3CNC(=O)CC3C2)c(C(=O)Nc2ccc(F)c(Cl)c2)c1N (single isomer, unassigned) [AIA-033-A, 5-Amino-N-(3-chloro-4-fluorophenyl)-1-methyl-3-(3-oxooctahydro-1H-cyclopenta[c]pyridin-6-yl)-1H-pyrazole-4-carboxamide]	100 to 500 nM
Cn1nc(C2CC3C[S+]([O-])CC3C2)c(C(=O)Nc2ccc(F)c(Cl)c2)c1N (single isomer, unassigned) [AIA-056-A, 5-Amino-N-(3-chloro-4-fluorophenyl)-1-methyl-3-(2-oxidohexahydro-1H-cyclopenta[c]thiophen-5-yl)-1H-pyrazole-4-carboxamide]	500 to 10000 nM
Cn1nc(C2CC(c3ccccc3)C2)c(C(=O)Nc2ccc(F)c(Cl)c2)c1N (single isomer, unassigned) [AIA-224B, 5-Amino-N-(3-chloro-4-fluorophenyl)-1-methyl-3-(3-phenylcyclobutyl)-1H-pyrazole-4-carboxamide]	100 to 500 nM
CCS(=O)(=O)CC1(O)CC2CC(c3nn(C)c(N)c3C(=O)Nc3ccc(F)c(Cl)c3)CC2C1 (single isomer, unassigned) [AIA-250-1, 5-Amino-N-(3-chloro-4-fluorophenyl)-3-(5-((ethylsulfonyl)nethyl)-5-hydroxyoctahydropentalen-2-yl)-1-methyl-1H-pyrazole-4-carboxamide]	< 100 nM
Cn1nc(C2CC3CC(O)(CS(=O)(=O)C4CC4)CC3C2)c(C(=O)Nc2ccc(F)c(Cl)c2)c1N (single isomer, unassigned) [AIA-252-2, 5-Amino-N-(3-chloro-4-fluorophenyl)-3-(5-((cyclopropylsulfonyl)methyl)-5-hydroxyortahydropentalen-2-yl)-1-methyl-1H-pyrazole-4-carboxamide]	< 100 nM
CCC1OCC2(CC3CC(c4nn(C)c(N)c4C(=O)Nc4ccc(F)c(Cl)c4)CC3C2)O1 (single isomer, unassigned) [AIA-255-3, 5-Amino-N-(3-chloro-4-fluorophenyl)-3-(2′-ethylhexahydro-1H-spiro[pentalene-2,4′-[1,3]dioxolan]-5-yl)-1-methyl-1H-pyrazole-4-carboxamide]	< 100 nM
Cn1nc(C2CC3CC(O)(CSCC(F)(F)F)CC3C2)c(C(=O)Nc2ccc(F)c(Cl)c2)c1N (single isomer, unassigned) [AIA-258-2, 5-Amino-N-(3-chloro-4-fluorophenyl)-3-(5-hydroxy-5-(((2,2,2-trifluoroethyl)thio)methyl)octahydropentalen-2-yl)-1-methyl-1H-pyrazole-4-carboxamide]	< 100 nM
Cn1nc(C2CC3CC(O)(CS(=O)(=O)C(C)(C)C)CC3C2)c(C(=O)Nc2ccc(F)c(Cl)c2)c1N (single isomer, unassigned) [AIA-260-1, 5-Amino-3-(5-((tert-butylsulfonyl)methyl)-5-hydroxyoctahydropentalen-2-yl)-N-(3-chloro-4-fluorophenyl)-1-methyl-1H-pyrazole-4-carboxamide]	< 100 nM
Cn1nc(C2CC3CC(O)(CSC(C)(C)C)CC3C2)c(C(=O)Nc2ccc(F)c(Cl)c2)c1N (single isomer, unassigned) [AIA-262-2, 5-Amino-3-(5-((tert-butylthio)methyl)-5-hydroxyoctahydropentalen-2-yl)-N-(3-chloro-4-fluorophenyl)-1-methyl-1H-pyrazole-4-carboxamide]	< 100 nM
